Paper PMC7297122 (2020)

Tests used:
[1] = tested on: NAD+ riboswitch domain 1, wild type (unmodified domain 1 RNA) (RNA, riboswitch) GGCUUCAACAACCCCGUAGGUUGGGCCGCAAGGCAGCGAAUCUACUGGAGCC; experiment: ITC; details: 100 mM KCl, 10 mM MgCl2; 40 mM HEPES-K pH 7.0 (pH 7.2 in Figure 5 legend), 298 K
[2] = tested on: domain 1 crystallization RNA, 5-bromocytidine form (RNA, riboswitch, 5-bromocytidine at 3 or at 42 and 45 (which form per ligand: Table S1, not seen)) GGCUUCAACAACCCCGUAGGUUGGGCCGAAAGGCAGCGAAUCUACUGGAGCC; experiment: X-ray crystallography; details: Mg2+
[3] = tested on: G47 2'-deoxy atomic mutant domain 1 (RNA, riboswitch, 2'-deoxy at 47) GGCUUCAACAACCCCGUAGGUUGGGCCGCAAGGCAGCGAAUCUACUGGAGCC; experiment: ITC; details: 100 mM KCl, 10 mM MgCl2; 40 mM HEPES-K pH 7.0, 298 K; 1 mM ligand titrated into 100 µM RNA
[4] = tested on: C6 2'-deoxy atomic mutant domain 1 (RNA, riboswitch, 2'-deoxy at 6) GGCUUCAACAACCCCGUAGGUUGGGCCGCAAGGCAGCGAAUCUACUGGAGCC; experiment: ITC; details: 100 mM KCl, 10 mM MgCl2; 40 mM HEPES-K pH 7.0, 298 K; 1 mM ligand titrated into 100 µM RNA
[5] = tested on: C6U:G47A mutant domain 1 (RNA, riboswitch) GGCUUUAACAACCCCGUAGGUUGGGCCGCAAGGCAGCGAAUCUACUAGAGCC; experiment: ITC; details: 100 mM KCl, 10 mM MgCl2; 40 mM HEPES-K pH 7.0, 298 K; 1 mM ligand titrated into 100 µM RNA
[6] = tested on: domain 1 crystallization RNA, unmodified (RNA, riboswitch) GGCUUCAACAACCCCGUAGGUUGGGCCGAAAGGCAGCGAAUCUACUGGAGCC; experiment: X-ray crystallography; details: Mg2+

| SMILES | Kd [1] [µM] | binding [2] | binding [6] | also measured |
| --- | --- | --- | --- | --- |
| CNc1ncnc2c1ncn2[C@@H]1O[C@H](COP(=O)(O)OP(=O)(O)OP(=O)(O)O)[C@@H](O)[C@H]1O | 50 ± 19 | yes | – | – |
| NC(=O)C1=CN([C@@H]2O[C@H](COP(=O)(O)OP(=O)(O)OC[C@H]3O[C@@H](n4cnc5c(N)ncnc54)[C@H](O)[C@@H]3O)[C@@H](O)[C@H]2O)C=CC1 | – | – | – | binding ([2]; only ADP moiety visible, also Mn2+ form 6TFH): yes |
| NC(=O)c1ccc[n+]([C@@H]2O[C@H](COP(=O)(O)OP(=O)(O)OC[C@H]3O[C@@H](n4cnc5c(N)ncnc54)[C@H](O)[C@@H]3O)[C@@H](O)[C@H]2O)c1 | > 150 | – | – | binding ([2]; ADP moiety and nicotinamide ribose 5' carbon visible): yes |
| Nc1ncnc2c1ncn2[C@@H]1O[C@H](COP(=O)(O)O)[C@@H](O)[C@H]1O | – | yes | – | – |
| Nc1ncnc2c1ncn2[C@@H]1O[C@H](COP(=O)(O)OP(=O)(O)O)[C@@H](O)[C@H]1O | 89 ± 15 | – | yes | binding [3]: weak; binding [4]: weak; binding [5]: no |
| Nc1ncnc2c1ncn2[C@@H]1O[C@H](COP(=O)(O)OP(=O)(O)OP(=O)(O)O)C[C@H]1O | – | – | yes | – |
| Nc1ncnc2c1ncn2[C@@H]1O[C@H](COP(=O)(O)OP(=O)(O)OP(=O)(O)O)[C@@H](O)[C@H]1O | – | yes | – | – |
| Nc1ncnc2c1ncn2[C@@H]1O[C@H](COP(=O)(O)OS(=O)(=O)O)[C@@H](OP(=O)(O)O)[C@H]1O | – | – | yes | – |
